ChEMBL document CHEMBL1201862, “PubChem BioAssay data set” (2004)
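Compound exposure: 48 hours, 5 concentrations, 96-well plates. Abbreviation: GI50, concentration required for 50% inhibition of growth.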 Calls of active or inactive are those of the source. Cut-off read from the data, not from the text of the source: active = GI50 up to about 1.1 µM and inactive = higher.

Legend:
Test in all cases: NCI tumour cell line growth inhibition, 48 h
786-0 = system: 786-0
A498 = system: A498
BT-549 = system: BT-549
HCC 2998 = system: HCC 2998
HCT-116 = system: HCT-116
HCT-15 = system: HCT-15
HOP-62 = system: HOP-62
Hs-578T = system: Hs-578T
M14 = system: M14
MCF7 = system: MCF7
NCI-H23 = system: NCI-H23
NCI-H460 = system: NCI-H460
PC-3 = system: PC-3
SF-268 = system: SF-268
SK-MEL-2 = system: SK-MEL-2
SNB-75 = system: SNB-75
SW-620 = system: SW-620
U-251 = system: U-251
UO-31 = system: UO-31
MDA-MB-435 = system: MDA-MB-435

Row | Structure (SMILES) | GI50 (786-0) | GI50 (A498) | GI50 (BT-549) | GI50 (HCC 2998) | GI50 (HCT-116) | GI50 (HCT-15) [µM] | GI50 (HOP-62) | GI50 (Hs-578T) | GI50 (M14) | GI50 (MCF7) | GI50 (NCI-H23) | GI50 (NCI-H460) | GI50 (PC-3) | GI50 (SF-268) | GI50 (SK-MEL-2) | GI50 (SNB-75) | GI50 (SW-620) | GI50 (U-251) | GI50 (UO-31) | GI50 (MDA-MB-435)
1 | CNc1ccc(Cl)cc1S(=O)(=O)c1ccccc1[N+](=O)[O-] | > 100 µM (inactive) | > 100 µM (inactive) | > 100 µM (inactive) | > 100 µM (inactive) | > 10 µM (inactive) | > 100 | > 100 µM (inactive) | 31.1 µM (inactive) | > 100 µM (inactive) | > 100 µM (inactive) | > 100 µM (inactive) | > 100 µM (inactive) | > 100 µM (inactive) | > 100 µM (inactive) | > 100 µM (inactive) | > 100 µM (inactive) | > 100 µM (inactive) | > 100 µM (inactive) | > 100 µM (inactive) | 
2 | COc1cc(/C=C(\C#N)c2ccccn2)cc(Br)c1O | 68.7 µM (inactive) |  | 34.1 µM (inactive) | 36.8 µM (inactive) | > 100 µM (inactive) | 21.9 | 28.8 µM (inactive) |  | 34.2 µM (inactive) | 24.4 µM (inactive) | 31 µM (inactive) | 36.3 µM (inactive) | 68.1 µM (inactive) | 51.4 µM (inactive) | 32.9 µM (inactive) | 37 µM (inactive) | 18.4 µM (inactive) | 28 µM (inactive) | 58.5 µM (inactive) | 
3 | COc1cc(C(=O)N(C(=O)N2CCCCC2)c2ccccc2)cc(OC)c1OC | > 100 µM (inactive) | > 100 µM (inactive) | > 100 µM (inactive) | > 100 µM (inactive) | > 100 µM (inactive) | > 100 | > 100 µM (inactive) |  | > 100 µM (inactive) | > 100 µM (inactive) | > 100 µM (inactive) | > 100 µM (inactive) | > 100 µM (inactive) |  | > 100 µM (inactive) | > 100 µM (inactive) | > 100 µM (inactive) | > 100 µM (inactive) | > 100 µM (inactive) | > 100 µM (inactive)
4 | CSCCCS/C1=C/CCCCCCCCCC1 | > 100 µM (inactive) | > 100 µM (inactive) |  | > 100 µM (inactive) | > 100 µM (inactive) | > 100 | > 100 µM (inactive) | > 100 µM (inactive) | > 100 µM (inactive) | > 100 µM (inactive) | > 100 µM (inactive) | > 100 µM (inactive) | > 100 µM (inactive) | > 100 µM (inactive) | > 100 µM (inactive) | 0.281 µM (active) |  | > 100 µM (inactive) | > 100 µM (inactive) | > 100 µM (inactive)
5 | CC[N+](C)(CC)CCNC(=O)C(O)(c1ccccc1)c1ccccc1 | > 100 µM (inactive) |  | > 100 µM (inactive) | > 100 µM (inactive) | > 100 µM (inactive) | > 100 | > 100 µM (inactive) |  | > 100 µM (inactive) | > 100 µM (inactive) | > 100 µM (inactive) | > 100 µM (inactive) | > 100 µM (inactive) | > 100 µM (inactive) |  | 35.6 µM (inactive) | > 100 µM (inactive) | > 100 µM (inactive) | > 100 µM (inactive) | 
6 | COc1ccc(C2N(c3ccc(C)c(N=C=O)c3)C(=O)N3C(c4ccc(OC)cc4)N(c4ccc(C)c(N=C=O)c4)C(=O)N23)cc1 (centres undefined) | > 100 µM (inactive) | 44 µM (inactive) | > 100 µM (inactive) | > 100 µM (inactive) | > 100 µM (inactive) | > 100 | > 100 µM (inactive) |  | 29.1 µM (inactive) | > 100 µM (inactive) | > 100 µM (inactive) | > 100 µM (inactive) | > 100 µM (inactive) | > 100 µM (inactive) | 49.7 µM (inactive) | 37.7 µM (inactive) | > 100 µM (inactive) | > 100 µM (inactive) | > 100 µM (inactive) | > 100 µM (inactive)
7 | N#Cc1c(-c2ccc(Cl)cc2)c(C#N)c(=O)n(NS(=O)(=O)c2ccccc2)c1S | 17.2 µM (inactive) | 27.7 µM (inactive) | 25.9 µM (inactive) | > 10 µM (inactive) | 25.5 µM (inactive) | 21.9 |  |  | 26.7 µM (inactive) | 32.6 µM (inactive) | 39.3 µM (inactive) | 18.8 µM (inactive) | 19.1 µM (inactive) |  | 47.3 µM (inactive) | 28.7 µM (inactive) | 26.2 µM (inactive) | 23.1 µM (inactive) | 16.2 µM (inactive) | 23.5 µM (inactive)
8 | CCOC(=O)CCC(NC(=O)C(CCC(=O)OCC)NC(=O)C(Cc1ccc([N+](=O)[O-])cc1)NC(C)=O)C(=O)NNC(=O)OC(C)(C)C (centres undefined) | > 100 µM (inactive) | > 100 µM (inactive) | > 100 µM (inactive) | > 100 µM (inactive) | > 100 µM (inactive) | > 100 | > 100 µM (inactive) | > 100 µM (inactive) | > 100 µM (inactive) | > 100 µM (inactive) | 65.6 µM (inactive) | > 100 µM (inactive) | > 100 µM (inactive) |  | > 100 µM (inactive) | > 100 µM (inactive) | > 100 µM (inactive) | > 100 µM (inactive) | > 100 µM (inactive) | 
9 | COC(=O)[C@@H]1O[C@]12C(CO[Si](C)(C)C(C)(C)C)OC(n1ccc(=O)[nH]c1=O)C2O[Si](C)(C)C(C)(C)C (some centres undefined) | 20.6 µM (inactive) | > 10 µM (inactive) | 17.5 µM (inactive) | 6.87 µM (inactive) | 23.3 µM (inactive) | 28.3 | 24 µM (inactive) |  | 15.3 µM (inactive) | 12.4 µM (inactive) | 19.8 µM (inactive) | 15.5 µM (inactive) | 20.9 µM (inactive) | 30.4 µM (inactive) | 17.4 µM (inactive) | > 100 µM (inactive) | 26.1 µM (inactive) | 26.2 µM (inactive) | 18.9 µM (inactive) | 23.6 µM (inactive)
10 | O=C1Nc2ccccc2C(=O)/C1=C/NC(=S)NCc1ccccc1 | > 100 µM (inactive) |  | > 100 µM (inactive) |  | > 100 µM (inactive) |  | > 100 µM (inactive) |  | > 100 µM (inactive) | > 100 µM (inactive) | > 100 µM (inactive) |  | > 100 µM (inactive) |  | > 100 µM (inactive) | > 100 µM (inactive) | > 100 µM (inactive) | > 100 µM (inactive) | > 100 µM (inactive) | 98.2 µM (inactive)
11 | C=C1C(=O)O[C@@H]2C[C@@H](C)[C@@H]3C=CC(=O)[C@@]3(C)[C@@H](O)[C@H]12 [HELENALIN] | 1.25 µM (inactive) | 1.86 µM (inactive) | 1.04 µM (active) | 1.51 µM (inactive) | 0.51 µM (active) | 2.33 | 5.89 µM (inactive) |  | 1.98 µM (inactive) | 0.78 µM (active) | 1.66 µM (inactive) | 1.73 µM (inactive) | 1.92 µM (inactive) | 3.5 µM (inactive) | 1.86 µM (inactive) | 0.0352 µM (active) | 0.719 µM (active) | 0.769 µM (active) | 1.68 µM (inactive) | 1.58 µM (inactive)
